Calls of active or inactive are those of the source.
Experiments:
Bcl-2-related protein A1 [1] = target: T1, Bcl-2-related protein A1 (Mus musculus, UniProt Q07440); assay: Bfl-1 binding inhibitors, SAR follow-up, biochemical, fluorescence polarization (AID 1070)
T1 sequence (Q07440 whole entry): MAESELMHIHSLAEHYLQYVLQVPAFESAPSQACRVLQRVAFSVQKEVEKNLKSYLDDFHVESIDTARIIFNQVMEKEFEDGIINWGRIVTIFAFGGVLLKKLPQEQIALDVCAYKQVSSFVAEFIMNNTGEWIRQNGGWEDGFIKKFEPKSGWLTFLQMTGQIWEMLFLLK

Bcl-2-related protein A1 [2] = target: T1, Bcl-2-related protein A1; assay: small-molecule antagonists of Bfl-1/BH3 interaction – biochemical, TR-FRET, mouse Bfl-1, confirmation (AID 621);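 also: TR-FRET binding of GST-Bfl-1 to FITC-labelled Bid peptide via terbium antibody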
[3] = target: Glyceraldehyde-3-phosphate dehydrogenase (Homo sapiens, UniProt P04406)
[4] = mitochondrial function rescue without frataxin homolog – Friedreich's ataxia, plus single-dose screen, dose response (AID 1465); format: functional;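 also: yeast depleted of Yfh1p frataxin homolog grown on glycerol needing respiration; WST-1 tetrazolium dye reduction as measure of cellular dehydrogenase metabolic activity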
SUMO-activating enzyme = SUMO-activating enzyme (Homo sapiens, UniProt Q9UBT2); assay: blockers of SAE1/SAE2–UBC9 SUMO transfer – biochemical, HTRF, uHTS, primary screen (AID 2006); format: protein-complex assay
Cytochrome P450 2D6 = Cytochrome P450 2D6 (Homo sapiens, UniProt P10635);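 also: CYP2D6 member of a cytochrome P450 panel assay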
Estrogen receptor = target: T2, Estrogen receptor (Homo sapiens, UniProt P03372);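 also: potency for inhibiting coactivator peptide recruitment to the receptor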
T2 sequence (P03372 whole entry): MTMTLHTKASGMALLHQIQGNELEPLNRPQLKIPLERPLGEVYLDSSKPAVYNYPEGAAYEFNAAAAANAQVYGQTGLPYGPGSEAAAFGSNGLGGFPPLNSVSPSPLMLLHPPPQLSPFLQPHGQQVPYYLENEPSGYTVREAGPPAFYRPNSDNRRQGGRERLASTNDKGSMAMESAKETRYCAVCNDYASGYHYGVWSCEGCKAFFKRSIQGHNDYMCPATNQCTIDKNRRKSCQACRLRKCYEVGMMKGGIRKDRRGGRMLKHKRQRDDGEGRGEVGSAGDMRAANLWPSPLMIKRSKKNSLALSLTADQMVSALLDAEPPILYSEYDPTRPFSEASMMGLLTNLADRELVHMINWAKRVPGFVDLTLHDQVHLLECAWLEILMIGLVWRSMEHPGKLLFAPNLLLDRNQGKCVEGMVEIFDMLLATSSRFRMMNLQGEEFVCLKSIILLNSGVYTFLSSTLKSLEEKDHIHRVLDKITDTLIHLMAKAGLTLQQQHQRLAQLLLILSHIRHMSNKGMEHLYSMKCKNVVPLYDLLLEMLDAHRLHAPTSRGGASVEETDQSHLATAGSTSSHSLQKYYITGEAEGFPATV

[5] = target: Protein-tyrosine kinase 2-beta (Homo sapiens, UniProt Q14289);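 also: potency of inhibitors of PYK2 kinase phosphorylation of poly-GT substrate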
[6] = NIH-3T3 fibroblast cytotoxicity, dose response, cytotoxicity control, cell-based, fluorescence, Alamar Blue, secondary assay (AID 2327); format: functional;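 also: NIH-3T3 mouse fibroblasts cultured with fluconazole at 8 µg/mL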
[7] = fluconazole-exposed Candida albicans growth modulators – fluorescence, retest, confirmation (AID 2467); format: functional, cell-based
Genome polyprotein = Genome polyprotein (dengue virus type 2, UniProt P29990); assay: flavivirus cap methylation enzyme inhibition – biochemical, confirmation dose response, primary screen (AID 588689); format: functional
[8] = antiviral protection against BTV-induced cell death – arbovirus, BSR cells, confirmation (AID 1250); format: functional;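 also: protection from viral cytopathic effect measured as cell viability by ATP luminescence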
Bcl-2-related protein A1 [9] = target: T1, Bcl-2-related protein A1; assay: displacement of Bid BH3 peptide from Bfl-1 – biochemical, fluorescence polarization, FITC-Bid, mouse, primary screen (AID 432)
[10] = target: COUP transcription factor 2 (Homo sapiens, UniProt P24468); assay: Luminescence-based cell-based high throughput dose response assay to identify inhibitors of COUP-TFII (NR2F2).; format: functional;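 also: HEK293 cells transiently cotransfected with COUP-TFII expression vector and reporter; luciferase reporter luminescence driven by COUP-TFII from the pX2-168 reporter plasmid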
[11] = non-specific 3'UTR reporter inhibition in Clone20-Shn3RL – cell-based, Renilla luciferase, cherry-picked, counter-screen for Shn3 inhibitor project, dose response (AID 624133); format: functional
[12] = HIV-1 AD8 envelope cell-cell fusion blockers – cherry-pick, dose response (AID 652062); format: functional, cell-based;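 also: luciferase signal from cell-cell fusion driven by HIV-1 clade B AD8 Env; potency is for inhibitors of fusion seen as a drop in luminescence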
Protein Wnt-3a = Protein Wnt-3a (Mus musculus, UniProt P27467); assay: antagonism of Wnt3a pathway luciferase reporter – Wnt-LIGHT cells, luminescence, selectivity assay for Gli-SUFU antagonist project, dose response (AID 651570); format: functional; details: read-out: IC50_Mean;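 also: Wnt-LIGHT reporter cells stimulated with conditioned medium from Wnt3a-producing cells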
[13] = reduction of Shn3 3'UTR-driven luciferase in osteoblasts – cell-based, Clone20 osteoblasts, firefly luciferase, cherry-picked, dose response (AID 624132); format: functional;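 also: firefly luciferase luminescence from reporter carrying the Shn3 3'UTR in osteoblasts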
[14] = viability loss in CEM21 cells – cell-based, CellTiter-Glo luminescence, cherry-picked, cytotoxicity control for viral fusion inhibitor project, dose response (AID 652042); format: functional;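 also: potency for signal decrease meaning cytotoxicity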
[15] = Shn3 transcript knock-down in Clone20 cells – cell-based, qPCR, cherry-pick, dose response (AID 743415); format: functional
[16] = Shn3 3'UTR reporter signal decrease – cell-based, Clone20 osteoblasts, firefly luciferase, cherry-pick, set 2, Schnurri-3 inhibitor project, dose response (AID 720490); format: functional;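 also: actives lower the luminescence signal as inhibitors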
[17] = target: Sphingosine 1-phosphate receptor 2 (Homo sapiens, UniProt O95136); assay: Dose Response Cell Based Assay for Antagonists of the S1P2 Receptor. [Related pubchem assays: 856, 736 ]; format: functional
[18] = target: Neurotensin receptor type 1 (Homo sapiens, UniProt P30989); format: functional;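 also: Image-based confirmatory dose-response assay measuring agonist activity at NTR1; NTR1-expressing U2OS osteosarcoma cells imaged for beta-arrestin GFP spot formation; agonist potency where compounds increase beta-arrestin recruitment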
[19] = loss of viability in HepG2 cells – cell-based, CellTiter-Glo, cherry-picked, cytotoxicity control for Shn3 inhibitor project, dose response (AID 624134); format: functional
[20] = blockers of HIV-1 envelope-mediated cell-cell fusion – cherry-pick, dose response (AID 652057); format: functional, cell-based
[21] = target: 5-hydroxytryptamine receptor 1A (Homo sapiens, UniProt P08908); format: functional
Sequence of 5-hydroxytryptamine receptor 1A (P08908 whole entry): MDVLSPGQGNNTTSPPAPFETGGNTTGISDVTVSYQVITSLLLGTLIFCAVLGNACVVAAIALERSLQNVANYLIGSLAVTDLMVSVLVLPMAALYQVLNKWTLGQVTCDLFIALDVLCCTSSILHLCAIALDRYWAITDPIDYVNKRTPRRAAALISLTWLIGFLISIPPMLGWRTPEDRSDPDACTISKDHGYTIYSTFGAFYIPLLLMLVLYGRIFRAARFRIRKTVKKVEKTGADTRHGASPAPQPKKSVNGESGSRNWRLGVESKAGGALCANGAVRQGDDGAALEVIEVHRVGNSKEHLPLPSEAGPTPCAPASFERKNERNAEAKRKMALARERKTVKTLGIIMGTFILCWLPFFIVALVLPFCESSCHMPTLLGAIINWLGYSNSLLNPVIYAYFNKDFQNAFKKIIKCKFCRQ

Sequence of COUP transcription factor 2 (P24468 whole entry): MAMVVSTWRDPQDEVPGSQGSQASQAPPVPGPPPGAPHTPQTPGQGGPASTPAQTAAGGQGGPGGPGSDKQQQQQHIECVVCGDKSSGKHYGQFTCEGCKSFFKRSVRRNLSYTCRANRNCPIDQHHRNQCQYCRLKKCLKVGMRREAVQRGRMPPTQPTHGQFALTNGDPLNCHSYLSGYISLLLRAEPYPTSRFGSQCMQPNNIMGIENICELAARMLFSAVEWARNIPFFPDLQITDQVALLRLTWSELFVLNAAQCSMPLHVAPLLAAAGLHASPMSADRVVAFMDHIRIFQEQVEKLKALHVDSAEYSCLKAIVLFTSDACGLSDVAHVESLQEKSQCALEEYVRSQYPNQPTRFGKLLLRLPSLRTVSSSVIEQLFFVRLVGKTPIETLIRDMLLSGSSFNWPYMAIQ
Sequence of Neurotensin receptor type 1 (P30989 whole entry): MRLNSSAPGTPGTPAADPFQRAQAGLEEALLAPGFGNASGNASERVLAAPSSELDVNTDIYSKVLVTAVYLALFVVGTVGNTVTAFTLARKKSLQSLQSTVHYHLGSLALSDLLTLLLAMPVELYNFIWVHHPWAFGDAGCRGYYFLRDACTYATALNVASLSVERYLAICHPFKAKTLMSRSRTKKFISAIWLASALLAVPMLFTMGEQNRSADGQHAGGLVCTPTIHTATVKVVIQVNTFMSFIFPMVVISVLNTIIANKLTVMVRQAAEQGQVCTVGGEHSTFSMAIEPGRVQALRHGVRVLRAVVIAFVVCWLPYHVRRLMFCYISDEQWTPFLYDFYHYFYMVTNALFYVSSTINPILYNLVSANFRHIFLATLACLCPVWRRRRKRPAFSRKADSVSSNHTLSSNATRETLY
Sequence of Cytochrome P450 2D6 (P10635 whole entry): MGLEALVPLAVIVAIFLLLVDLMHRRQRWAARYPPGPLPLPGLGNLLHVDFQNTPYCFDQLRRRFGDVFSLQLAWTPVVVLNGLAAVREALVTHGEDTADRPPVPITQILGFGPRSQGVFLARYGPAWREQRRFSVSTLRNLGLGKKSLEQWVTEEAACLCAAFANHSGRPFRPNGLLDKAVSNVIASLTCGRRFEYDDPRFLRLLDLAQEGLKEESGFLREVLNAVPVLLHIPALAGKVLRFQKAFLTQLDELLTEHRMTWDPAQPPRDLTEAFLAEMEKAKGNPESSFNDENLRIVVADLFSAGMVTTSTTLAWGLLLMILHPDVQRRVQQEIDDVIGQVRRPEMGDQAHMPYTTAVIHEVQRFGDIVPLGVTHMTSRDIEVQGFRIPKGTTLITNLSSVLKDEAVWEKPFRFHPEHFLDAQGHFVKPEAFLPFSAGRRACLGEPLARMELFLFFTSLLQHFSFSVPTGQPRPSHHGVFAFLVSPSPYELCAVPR
Sequence of SUMO-activating enzyme (Q9UBE0 whole entry): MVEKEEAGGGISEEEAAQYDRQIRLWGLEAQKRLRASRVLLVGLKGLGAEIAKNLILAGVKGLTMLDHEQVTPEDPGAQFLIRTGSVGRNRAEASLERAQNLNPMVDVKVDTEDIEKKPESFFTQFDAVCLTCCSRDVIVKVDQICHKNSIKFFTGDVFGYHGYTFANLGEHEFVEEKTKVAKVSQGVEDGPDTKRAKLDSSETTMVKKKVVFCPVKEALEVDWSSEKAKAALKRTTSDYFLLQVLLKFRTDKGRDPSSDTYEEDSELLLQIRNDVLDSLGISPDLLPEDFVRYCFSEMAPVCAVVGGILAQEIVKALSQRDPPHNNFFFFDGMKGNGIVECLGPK
Sequence of SUMO-activating enzyme (Q9UBT2 whole entry): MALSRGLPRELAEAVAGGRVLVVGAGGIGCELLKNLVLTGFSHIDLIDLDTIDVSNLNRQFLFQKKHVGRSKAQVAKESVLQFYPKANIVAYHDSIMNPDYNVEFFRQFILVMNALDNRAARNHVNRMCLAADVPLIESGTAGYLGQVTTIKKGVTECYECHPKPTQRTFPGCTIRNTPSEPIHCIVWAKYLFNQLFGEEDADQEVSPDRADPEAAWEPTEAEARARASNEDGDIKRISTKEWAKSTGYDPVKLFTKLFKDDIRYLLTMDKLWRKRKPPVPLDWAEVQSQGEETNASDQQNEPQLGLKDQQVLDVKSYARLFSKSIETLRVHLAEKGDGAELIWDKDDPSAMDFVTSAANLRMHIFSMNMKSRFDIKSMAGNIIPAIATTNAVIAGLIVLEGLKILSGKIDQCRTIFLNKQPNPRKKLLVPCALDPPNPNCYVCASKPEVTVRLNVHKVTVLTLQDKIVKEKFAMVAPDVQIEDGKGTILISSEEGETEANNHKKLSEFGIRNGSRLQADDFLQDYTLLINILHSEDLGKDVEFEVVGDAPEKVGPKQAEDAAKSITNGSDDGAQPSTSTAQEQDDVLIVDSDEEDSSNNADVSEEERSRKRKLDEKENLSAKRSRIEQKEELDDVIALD
Sequence of Protein-tyrosine kinase 2-beta (Q14289 whole entry): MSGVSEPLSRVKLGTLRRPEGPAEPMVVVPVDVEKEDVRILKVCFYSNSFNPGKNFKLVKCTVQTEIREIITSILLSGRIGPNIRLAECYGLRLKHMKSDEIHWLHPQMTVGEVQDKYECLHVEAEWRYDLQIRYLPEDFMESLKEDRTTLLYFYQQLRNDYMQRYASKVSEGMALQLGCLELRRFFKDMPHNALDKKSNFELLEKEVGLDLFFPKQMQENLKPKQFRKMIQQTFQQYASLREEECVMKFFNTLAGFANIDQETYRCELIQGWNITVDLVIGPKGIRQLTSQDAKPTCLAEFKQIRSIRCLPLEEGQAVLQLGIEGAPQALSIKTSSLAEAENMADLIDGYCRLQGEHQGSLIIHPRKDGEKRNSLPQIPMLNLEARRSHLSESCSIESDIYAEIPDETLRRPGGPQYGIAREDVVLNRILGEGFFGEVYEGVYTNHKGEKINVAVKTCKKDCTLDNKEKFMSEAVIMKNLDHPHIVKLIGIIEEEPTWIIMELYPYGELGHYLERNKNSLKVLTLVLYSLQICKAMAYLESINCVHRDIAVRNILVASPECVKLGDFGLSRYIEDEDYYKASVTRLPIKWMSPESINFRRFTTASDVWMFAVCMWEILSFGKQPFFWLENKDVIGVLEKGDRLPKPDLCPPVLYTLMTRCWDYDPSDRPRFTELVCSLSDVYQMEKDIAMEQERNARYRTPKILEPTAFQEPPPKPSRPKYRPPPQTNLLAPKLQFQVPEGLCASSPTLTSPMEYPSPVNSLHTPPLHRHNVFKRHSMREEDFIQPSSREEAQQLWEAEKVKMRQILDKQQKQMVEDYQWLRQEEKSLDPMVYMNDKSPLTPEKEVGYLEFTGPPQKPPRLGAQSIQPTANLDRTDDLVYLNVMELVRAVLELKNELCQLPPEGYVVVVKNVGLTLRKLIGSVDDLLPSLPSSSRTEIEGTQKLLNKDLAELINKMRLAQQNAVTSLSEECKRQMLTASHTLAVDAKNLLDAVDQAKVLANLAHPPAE
Sequence of Protein Wnt-3a (P27467 whole entry): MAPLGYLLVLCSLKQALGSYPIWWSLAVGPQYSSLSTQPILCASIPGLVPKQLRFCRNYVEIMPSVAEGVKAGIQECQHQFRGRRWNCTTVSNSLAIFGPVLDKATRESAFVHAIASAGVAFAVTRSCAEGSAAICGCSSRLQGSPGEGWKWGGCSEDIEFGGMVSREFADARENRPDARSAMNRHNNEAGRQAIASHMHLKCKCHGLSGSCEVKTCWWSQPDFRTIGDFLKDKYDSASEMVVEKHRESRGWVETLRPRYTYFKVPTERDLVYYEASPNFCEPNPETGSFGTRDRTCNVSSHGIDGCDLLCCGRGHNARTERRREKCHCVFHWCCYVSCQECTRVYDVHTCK
Sequence of Sphingosine 1-phosphate receptor 2 (O95136 whole entry): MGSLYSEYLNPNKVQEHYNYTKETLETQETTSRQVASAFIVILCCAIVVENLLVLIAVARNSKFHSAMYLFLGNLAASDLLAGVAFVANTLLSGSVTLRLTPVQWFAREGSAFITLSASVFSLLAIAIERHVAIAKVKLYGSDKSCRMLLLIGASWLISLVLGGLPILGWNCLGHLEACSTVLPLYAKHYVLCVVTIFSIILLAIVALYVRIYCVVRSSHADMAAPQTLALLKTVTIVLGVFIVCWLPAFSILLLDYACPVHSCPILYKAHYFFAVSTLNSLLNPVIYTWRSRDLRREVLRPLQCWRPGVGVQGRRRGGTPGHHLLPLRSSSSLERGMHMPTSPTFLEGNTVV
Sequence of Glyceraldehyde-3-phosphate dehydrogenase (P04406 whole entry): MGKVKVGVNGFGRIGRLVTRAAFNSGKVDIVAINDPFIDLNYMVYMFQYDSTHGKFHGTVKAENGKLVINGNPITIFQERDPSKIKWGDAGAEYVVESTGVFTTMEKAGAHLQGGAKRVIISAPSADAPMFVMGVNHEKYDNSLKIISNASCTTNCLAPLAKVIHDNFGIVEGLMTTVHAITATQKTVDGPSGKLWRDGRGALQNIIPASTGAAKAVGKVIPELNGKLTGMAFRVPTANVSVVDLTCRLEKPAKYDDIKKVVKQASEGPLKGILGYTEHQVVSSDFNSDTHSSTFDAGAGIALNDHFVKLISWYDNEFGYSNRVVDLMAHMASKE

For CN1CCN(C2=C(Cl)C(=O)N(c3cccc(Cl)c3)C2=O)CC1, the IC50 (Bcl-2-related protein A1 [1]) was 2.15 µM (active), the IC50 (Bcl-2-related protein A1 [2]) was 1.17 µM (active) and the IC50 [3] was > 100 µM (not active).
In the case of CC(C)NC(=O)/C(C#N)=C/c1ccc(N(C)C)o1, the EC50 [4] is reported as > 100 µM (active).
With O=C(Nc1ccc(-n2nncc2-c2ccco2)cc1)c1cc2ccccc2oc1=O the IC50 (SUMO-activating enzyme) was 14.7 µM (active), the AC50 (Cytochrome P450 2D6) was 2.51 µM (inconclusive) and the IC50 (Estrogen receptor) was 40.6 µM (not active). The IC50 [5] was 1.9 µM (active).
With CCCCCCn1c(=O)c(-c2ccccc2)c(O)c2ccccc21 the EC50 [6] was > 150 µM (inactive), the EC50 [7] was 4.42 µM (active) and the IC50 (Genome polyprotein) was 69.4 µM (active). For the same compound, the IC50 [8] was 25 µM (active).
For O=C(NC12CC3CC(CC(C3)C1)C2)c1ccccc1O, the IC50 (Bcl-2-related protein A1 [9]) was > 100 µM (not active) and the IC50 (Bcl-2-related protein A1 [2]) was > 100 µM (not active).
In the case of Fc1ccc(-n2nnnc2-c2cnc(-c3cccs3)nc2C(F)(F)F)cc1, the IC50 [10] is reported as 12.8 µM (inactive), the AC50 [11] is reported as 13.3 µM (active) and the AC50 [12] is reported as 40.4 µM (active). For the same compound, the IC50 (Protein Wnt-3a) was 5.83 µM (active), the AC50 [13] was 4.44 µM (active) and the AC50 [14] was 18.8 µM (active). For the same compound, the AC50 [15] was 24.4 µM (active), the AC50 [16] was 2.6 µM (active) and the IC50 [17] was 5.2 µM (active). For the same compound, the EC50 [18] was 9.77 µM (active), the AC50 [19] was 55 µM (active) and the AC50 [20] was 9.88 µM (active).
In the case of O=C(NCc1ccccc1)NC1(C(=O)N2CCCC2)CCCCC1, the EC50 [21] is reported as > 50 µM (not active).
